Measurements from patent US5484940A, “Substituted 3-indolyl-5-pyrazolone compounds” (priority 1994, dated 1996).

What was measured:
[1] = target: T1, 5-lipoxygenase (Rattus norvegicus, UniProt P12527); assay: 5-Lipoxygenase inhibition (5-HETE radioimmunoassay); assay type: biochemical; conditions: 6 μM compound; crude enzyme from RBL-1 cells; read-out: Percent Inhibition (5-lipoxygenase)
T1 construct: crude 5-lipoxygenase enzyme from rat basophilic leukemia cells (RBL-1); endogenous in cells; host or cells: RBL-1 (rat basophilic leukemia cells), crude enzyme
T1 sequence (P12527 1-673): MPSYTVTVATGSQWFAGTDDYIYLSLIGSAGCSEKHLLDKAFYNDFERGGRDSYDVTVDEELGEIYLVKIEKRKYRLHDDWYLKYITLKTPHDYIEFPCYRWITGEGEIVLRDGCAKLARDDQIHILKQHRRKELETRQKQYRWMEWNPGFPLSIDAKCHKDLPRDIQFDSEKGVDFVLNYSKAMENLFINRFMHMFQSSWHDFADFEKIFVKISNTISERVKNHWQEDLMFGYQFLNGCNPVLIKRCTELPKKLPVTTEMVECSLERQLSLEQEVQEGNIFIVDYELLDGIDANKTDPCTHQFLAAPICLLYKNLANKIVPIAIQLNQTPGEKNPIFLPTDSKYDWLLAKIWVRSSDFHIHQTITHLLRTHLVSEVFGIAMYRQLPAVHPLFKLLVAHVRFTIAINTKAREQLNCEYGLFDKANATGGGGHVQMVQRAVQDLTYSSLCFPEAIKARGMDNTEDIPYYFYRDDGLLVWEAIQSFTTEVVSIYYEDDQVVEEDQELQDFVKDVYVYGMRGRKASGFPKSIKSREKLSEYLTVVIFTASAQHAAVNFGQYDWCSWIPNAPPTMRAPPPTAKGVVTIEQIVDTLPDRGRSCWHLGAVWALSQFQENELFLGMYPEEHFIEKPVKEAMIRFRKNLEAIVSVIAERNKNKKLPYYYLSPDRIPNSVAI
Description: 5-Lipoxygenase catalyzes the oxidative metabolism of arachidonic acid to 5-hydroperoxyeicosatetraenoid acid ([…]), the initial reaction leading to the formation of the leukotrienes^18. Accordingly, compounds inhibiting 5-lipoxygenase activity are art recognized to have anti-inflammatory properties.
The ability of test compounds to inhibit 5-lipoxygenase activity was determined in assays^19 using crude 5-lipoxygenase enzyme from rat basophilic leukemia cells (RBL-1). Test compounds are pre-incubated with the enzyme for 5 minutes at room temperature and the reaction is initiated by addition of substrate (arachidonic acid). Following an 8 minute incubation at room temperature, the reaction is terminated by addition of citric acid, and levels of 5-HETE determined by 5-HETE radioimmunoassay.

[2] = test system: 293 751 SWE cells; assay: Cytotoxicity (MTT) in 293 751 SWE cells; assay type: cell-based, human; conditions: concentration not given
In short: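 Used HEK293 cells stably expressing APP751 carrying the Swedish double mutation (K651N/M652L), plated at 1.5-2.5×10^4 cells/well in DMEM + 10% FBS. MTT was added to a final 1 mg/mL for 1 h at 37 °C, then lysed in SDS/DMF (pH 4.7) overnight. Viability was read as OD562 − OD650.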

[3] = test system: human cortical neurons; assay: Inhibition of toxicity of β-amyloid peptide to human neuronal cells (alamarBlue); assay type: cell-based; conditions: 50 μM β-amyloid peptide, 2-3 days; on average where more than one duplicate experiment; compound concentration not stated
In short: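 Primary human cortical neurons, cultured in MEM/B27, were exposed to test compound plus 50 μM β-amyloid peptide in MEM for 2-3 days at 37 °C. Neuronal survival was quantified by reduction of 10% alamarBlue in MEM (fluorometric/colorimetric metabolic indicator).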

How did the inhibition at 6 µM [1] turn out when `COc1ccc2c(c1)c(CC1=NN(c3cccc(C(F)(F)F)c3)C(=O)C1)c(C)n2C(=O)c1ccc(Cl)cc1` [Example 25, 3-[1-(4-chlorobenzoyl)-5-methoxy-2-methyl-3-indolylmethyl]-1-(3-trifluoromethylphenyl)-5-pyrazolone] was run?
Its inhibition at 6 µM is 60%.

And the “cytotoxic effect on the 293 751 SWE cells” value [2]?
The value was “did not have a significant cytotoxic effect”.

And the “inhibition of the toxicity of β-amyloid peptide to human neuronal cells” value [3]?
Its value is “at least 25%”.
